According to US11479546B2, “Antimalarial hexahydropyrimidine analogues” (UCB Biopharma SRL, priority 2018, dated 2022):

Test system: Plasmodium falciparum 3D7
Assay: P. falciparum 3D7 asexual blood stage assay, Assay Procedure Version 1 (SYBR green readout)
Format: cell-based
Details: 3D7, Erythrocyte, Version 1 of the assay procedure (no asterisk), 72 h incubation in infected erythrocytes, 10,000 nM to 0.51 nM
In short: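 Erythrocytes at 5% haematocrit, 0.5% parasitaemia, exposed 72 h at 37° C (1% O2, 3% CO2) to 10-point 3-fold titrations, 10,000–0.51 nM final in 0.5% DMSO. SYBR green in lysis buffer overnight, fluorescence 485/528 nm; % inhibition versus controls, EC50 from 4-parameter fit.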

Row | SMILES | IC50
1 | Cc1ccccc1Nc1cccc([C@]2(C)CC(=O)N(C3CCOCC3)C(=N)N2)c1Cl [Example 165, (6S)-6-[2-Chloro-3-(2-methyl-anilino)phenyl]-2-imino-6-methyl-3-(tetrahydropyran-4-yl)hexahydropyrimidin-4-one] | 890 nM
2 | C[C@@]1(c2cccc(Nc3cccc(C(F)(F)F)c3)c2Cl)CC(=O)N(C2CCOCC2)C(=N)N1 [Example 163, (6S)-6-{2-Chloro-3-[3-(trifluoromethyl)anilino]-phenyl}-2-imino-6-methyl-3-(tetrahydropyran-4-yl)-hexahydropyrimidin-4-one] | 913 nM
3 | C[C@@]1(c2cccc(Nc3ccc(Cl)c(F)c3)c2Cl)CC(=O)N(C2CCOCC2)C(=N)N1 [Example 33, (6S)-6-[2-Chloro-3-(4-chloro-3-fluoroanilino)phenyl]-2-imino-6-methyl-3-(tetrahydropyran-4-yl)hexahydropyrimidin-4-one] | 1810 nM
4 | C[C@@]1(c2cccc(Nc3ccc(S(C)(=O)=O)cc3)c2Cl)CC(=O)N(C2CCOCC2)C(=N)N1 [Example 39, (6S)-6-[2-Chloro-3-(4-methyl-sulfonylanilino)phenyl]-2-imino-6-methyl-3-(tetrahydro-pyran-4-yl)hexahydropyrimidin-4-one] | 2090 nM
5 | COc1ccc(Nc2cccc([C@]3(C)CC(=O)N(C4CCOCC4)C(=N)N3)c2Cl)cc1OC [Example 164, (6S)-6-[2-Chloro-3-(3,4-dimethoxyanilino)phenyl]-2-imino-6-methyl-3-(tetrahydro-pyran-4-yl)hexahydropyrimidin-4-one] | 2200 nM

The remaining compounds from weak to strong by IC50, led by results:

Row | IC50 | SMILES
6 | 1680 nM | Cc1ccc(Nc2cccc([C@]3(C)CC(=O)N(C4CCOCC4)C(=N)N3)c2Cl)cc1 [Example 160, (6S)-6-[2-Chloro-3-(4-methyl-anilino)phenyl]-2-imino-6-methyl-3-(tetrahydropyran-4-yl)hexahydropyrimidin-4-one]
7 | 1540 nM | C[C@@]1(c2cccc(Nc3ccc(C(F)(F)F)cc3)c2Cl)CC(=O)N(CC2CCOCC2)C(=N)N1 [Example 173, (6S)-6-{2-Chloro-3-[4-(trifluoromethyl)anilino]-phenyl}-2-imino-6-methyl-3-(tetrahydropyran-4-ylmethyl)-hexahydropyrimidin-4-one]
8 | 905 nM | C[C@@]1(c2cccc(Nc3ccc(Cl)cc3)c2Cl)CC(=O)N(C2CCOCC2)C(=N)N1 [Example 162, (6S)-6-[2-Chloro-3-(4-chloro-anilino)phenyl]-2-imino-6-methyl-3-(tetrahydropyran-4-yl)hexahydropyrimidin-4-one]
9 | 334 nM | C[C@@]1(c2cccc(Nc3cccc(Cl)c3)c2Cl)CC(=O)N(C2CCOCC2)C(=N)N1 [Example 7, (6S)-6-[2-Chloro-3-(3-chloro-anilino)phenyl]-2-imino-6-methyl-3-(tetrahydropyran-4-yl)hexahydropyrimidin-4-one]
